Test results from the NIST ThermoML archive (doi:10.1016/j.jct.2005.12.012).
Where “and” joins values, the source holds several entries; their conditions need not be identical. Identical values can stand only once. Numbers after ± are expanded uncertainties.

Settings: Crystal

[Cl][Fe]([Cl])[Cl] [ferric chloride]
Settings | vapor or sublimation pressure
383.9 K | 2.16e-05 ± 4.4e-06 kPa
386.3 K | 1.586e-05 ± 3.3e-06 kPa and 2.159e-05 ± 4.4e-06 kPa
389.3 K | 4.466e-05 ± 1e-05 kPa
389.6 K | 3.81e-05 ± 7.8e-06 kPa
389.7 K | 3.88e-05 ± 8e-06 kPa
390.4 K | 3.533e-05 ± 7.1e-06 kPa
392 K | 3.693e-05 ± 7.7e-06 kPa
392.7 K | 6.293e-05 ± 1.4e-05 kPa
393.8 K | 8.506e-05 ± 1.7e-05 kPa
394.2 K | 6.506e-05 ± 1.3e-05 kPa
394.8 K | 9.106e-05 ± 1.8e-05 kPa
394.9 K | 4.68e-05 ± 9.4e-06 kPa and 7.493e-05 ± 1.5e-05 kPa
395.1 K | 5.706e-05 ± 1.3e-05 kPa
395.4 K | 7.039e-05 ± 1.7e-05 kPa
396.6 K | 7.053e-05 ± 1.4e-05 kPa
398 K | 6.426e-05 ± 1.3e-05 kPa
398.6 K | 0.0001123 ± 2.8e-05 kPa
398.9 K | 0.0001423 ± 3.5e-05 kPa
399 K | 0.0001348 ± 2.9e-05 kPa and 0.0001191 ± 2.4e-05 kPa
401.2 K | 0.0001035 ± 2.1e-05 kPa
403 K | 0.0001712 ± 3.5e-05 kPa and 0.0001621 ± 3.5e-05 kPa and 0.0001703 ± 3.5e-05 kPa
403.2 K | 0.0002573 ± 5.2e-05 kPa
403.3 K | 0.0001812 ± 3.8e-05 kPa
404.5 K | 0.0002585 ± 5.2e-05 kPa
404.6 K | 0.000249 ± 5e-05 kPa
407.7 K | 0.0003298 ± 7e-05 kPa
408.6 K | 0.000386 ± 7.7e-05 kPa and 0.0003425 ± 6.8e-05 kPa
409.1 K | 0.000328 ± 6.9e-05 kPa
409.3 K | 0.0003058 ± 6.3e-05 kPa
409.8 K | 0.0004945 ± 0.00012 kPa
409.9 K | 0.0003822 ± 8.1e-05 kPa
412.7 K | 0.0003274 ± 6.6e-05 kPa
413.5 K | 0.0004797 ± 0.00011 kPa
413.9 K | 0.0005921 ± 0.00013 kPa and 0.0007087 ± 0.00015 kPa
414.1 K | 0.0005326 ± 0.00011 kPa
414.6 K | 0.0007097 ± 0.00014 kPa
416.4 K | 0.0004961 ± 0.0001 kPa and 0.0004838 ± 9.9e-05 kPa
418.4 K | 0.001063 ± 0.00043 kPa
419.3 K | 0.0007021 ± 0.00015 kPa and 0.001331 ± 0.00057 kPa
419.4 K | 0.0008229 ± 0.00017 kPa
419.8 K | 0.0006339 ± 0.00016 kPa
419.9 K | 0.0009366 ± 0.00019 kPa
421.9 K | 0.0009899 ± 0.0002 kPa
422.2 K | 0.001008 ± 0.0004 kPa
423.6 K | 0.001647 ± 0.00073 kPa
424 K | 0.00111 ± 0.00045 kPa
424.2 K | 0.001053 ± 0.00043 kPa
424.8 K | 0.001549 ± 0.00068 kPa
424.9 K | 0.001033 ± 0.00042 kPa
425.6 K | 0.001455 ± 0.00063 kPa
426.4 K | 0.001488 ± 0.00065 kPa
426.8 K | 0.001202 ± 0.00052 kPa
428.8 K | 0.001767 ± 0.00091 kPa and 0.001985 ± 0.00097 kPa
429.2 K | 0.002648 ± 0.0014 kPa
430.9 K | 0.002751 ± 0.0013 kPa
431.6 K | 0.001895 ± 0.00087 kPa
434 K | 0.003812 ± 0.002 kPa
434.4 K | 0.003132 ± 0.0016 kPa
434.5 K | 0.004177 ± 0.0022 kPa
439.7 K | 0.006419 ± 0.0036 kPa
445.2 K | 0.008538 ± 0.005 kPa
